Experimental data: EP1229026A1, “ALKOXYIMINOALKANOIC ACID DERIVATIVES” (Takeda Chemical Industries, Ltd., priority 1999, dated 2001)

How the values were obtained:
KKA^y mice [1] = assay: Hypoglycemic and hypolipidemic (hypotriglyceridemic) actions in mice; format: in vivo; conditions: four days; for Hypoglycemic action (%): percent decrease of plasma glucose vs non-administration group (100%); for Hypolipidemic action (%): percent decrease of plasma triglyceride vs non-administration group (100%)
Method: Test compounds were mixed in a powdery diet (CE-2, Japan Clea) at the concentration of 0.01% (compound of Example 2) or 0.005% (compound of Example 4), and freely given to KKA^y mice (11 to 12 weeks old, 5 mice per group), a model of obesity and type II diabetes, for four days. During this period, water was given freely. Blood was sampled from orbital venous plexus, and glucose and triglyceride levels in plasma separated from blood were determined enzymatically using L type Wako Glu2 (Wako Pure Chemical Industries, Ltd.) or L type Wako TG•H (Wako Pure Chemical Industries, Ltd.), respectively.

KKA^y mice [2] = assay: Total cholesterol lowering action and plasma anti-arteriosclerosis index-increasing action in mice; format: in vivo; conditions: 0.005% in powdery diet, four days
Method: Test compound was mixed in a powdery diet (CE-2, Japan Clea) at the concentration of 0.005%, and freely given to KKA^y mice (12 weeks old, 5 mice per group), a model of obesity and type II diabetes, for four days. During this period, water was given freely. Blood was sampled from orbital venous plexus and plasma was separated and analyzed for components. Total cholesterol levels were determined using L type Wako Cholesterol (Wako Pure Chemical Industries, Ltd.). Precipitation reagent for apoB containing lipoprotein (Wako Pure Chemical Industries, Ltd.) was added to a part of the plasma to allow precipitation of non-HDL lipoprotein, and cholesterol (HDL cholesterol) in the resulting supernatant was determined. The plasma anti-arteriosclerosis index [(HDL cholesterol/total cholesterol)×100] was calculated using these cholesterol levels.
In the Table, "Total cholesterol lowering action (%)" represents the percent reduction (%) of total cholesterol level in the test compound administration group, when the total cholesterol level in the test compound non-administration group is taken as 100%. "Plasma anti-arteriosclerosis index-increasing action (%)" represents a percent increase (%) of plasma anti-arteriosclerosis index in the test compound administration group, when the plasma anti-arteriosclerosis index in the test compound non-administration group-is taken as 100%.

PPARγ-RXRα heterodimer = target: T1, PPARγ-RXRα heterodimer (Homo sapiens, UniProt P37231); assay: PPARγ-RXRα heterodimer ligand activity (luciferase reporter in PPARγ:RXRα:4ERPP/CHO-K1 cells); format: cell-based; conditions: concentration for 50% of the maximum fold induction of luciferase activity, 48 hours
T1 construct: 1.4 kb DNA fragment containing PPARγ gene was recovered from the gel; expressed in transfected cells; host or cells: CHO-K1
T1 sequence (P37231 1-477 isoform P37231-2): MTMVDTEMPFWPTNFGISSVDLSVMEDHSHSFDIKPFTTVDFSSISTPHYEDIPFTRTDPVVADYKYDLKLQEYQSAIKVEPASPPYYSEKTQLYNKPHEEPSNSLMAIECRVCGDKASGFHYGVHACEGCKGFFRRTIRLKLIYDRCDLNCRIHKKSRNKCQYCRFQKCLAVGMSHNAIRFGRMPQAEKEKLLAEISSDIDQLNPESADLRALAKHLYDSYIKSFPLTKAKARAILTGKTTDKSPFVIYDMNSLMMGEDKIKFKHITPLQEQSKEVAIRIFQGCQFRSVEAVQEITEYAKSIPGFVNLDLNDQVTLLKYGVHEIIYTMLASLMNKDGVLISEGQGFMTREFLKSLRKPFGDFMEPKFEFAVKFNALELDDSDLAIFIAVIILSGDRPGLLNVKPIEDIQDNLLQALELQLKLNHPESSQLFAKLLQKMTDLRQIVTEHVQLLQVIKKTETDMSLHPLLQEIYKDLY
T1 sequence (P19793 1-462 partner): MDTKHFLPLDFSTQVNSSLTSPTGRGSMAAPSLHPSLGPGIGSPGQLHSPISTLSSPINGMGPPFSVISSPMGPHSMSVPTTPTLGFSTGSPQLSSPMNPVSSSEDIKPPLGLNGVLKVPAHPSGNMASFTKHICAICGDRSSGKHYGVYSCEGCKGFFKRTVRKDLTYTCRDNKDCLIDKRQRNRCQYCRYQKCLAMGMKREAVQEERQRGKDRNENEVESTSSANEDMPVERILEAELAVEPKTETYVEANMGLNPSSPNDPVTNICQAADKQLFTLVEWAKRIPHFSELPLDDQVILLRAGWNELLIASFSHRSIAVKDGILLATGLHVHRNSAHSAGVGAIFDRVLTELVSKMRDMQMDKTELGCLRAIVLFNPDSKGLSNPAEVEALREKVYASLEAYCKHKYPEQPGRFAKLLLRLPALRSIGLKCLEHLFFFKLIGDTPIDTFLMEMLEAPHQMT
Method: A PPARγ:RXRα:4ERPP/CHO-K1 cells obtained in Reference Example 5 to be described later were cultured in HAM F12 medium (produced by NISSUI PHARMACEUTICAL CO., LTD.) containing 10% fetal bovine serum (produced by Life Technologies, Inc., USA) and then inoculated to a 96-well white plate (produced by Corning Costar Corporation, USA) at the density of 2×10^4 cells/well, and cultured in a CO2 gas incubator at 37°C overnight.
After washing the 96 well white plate with PBS (phosphate-buffered saline), 90 µl of HAM F12 medium containing 0.1% fatty acid-free bovine serum albumin (BSA) and 10 µl of test compound were added, which was followed by culture in a CO2 gas incubator at 37°C for 48 hours. After removing the medium, 40 µl of PIKKAGENE 7.5 (produced by Wako Pure Chemical Industries, Ltd.) was added. After stirring, the luciferase activity was determined using Lumistar (produced by BMG Labtechnologies GmbH, Germany).
A fold induction was calculated based on the luciferase activity of each test compound where the luciferase activity in the test compound non-administration group was taken as 1. The values of the test compound concentration and the fold induction were analyzed using PRISM 2.01 (produced by GraphPad Software Inc., USA) to calculate the EC50 values, the effective concentration of the test compound for 50% of the maximum fold induction. […]

| Compound | Hypoglycemic action (%) (KKA^y mice [1]; 0.005% in powdery diet) | Hypolipidemic action (%) (KKA^y mice [1]; 0.005% in powdery diet) | Plasma anti-arteriosclerosis index-increasing action (%) (KKA^y mice [2]; percent increase of index [(HDL cholesterol/total cholesterol)×100] vs non-administration group (100%)) | Total cholesterol lowering action (%) (KKA^y mice [2]; percent reduction of total cholesterol level vs non-administration group (100%)) | EC50 (PPARγ-RXRα heterodimer) [µM] | Hypoglycemic action (%) (KKA^y mice [1]; 0.01% in powdery diet) | Hypolipidemic action (%) (KKA^y mice [1]; 0.01% in powdery diet) |
| --- | --- | --- | --- | --- | --- | --- | --- |
| Cc1oc(-c2ccccc2)nc1COc1ccc(CO/N=C(\CCC(=O)O)c2ccccc2)cn1 [Example 4, (E)-4-[6-(5-methyl-2-phenyl-4-oxazolylmethoxy)-3-pyridylmethoxyimino]-4-phenylbutyric acid] | 54 | 90 | 39 | 22 | 0.0014 |  |  |
| Cc1oc(-c2ccccc2)nc1COc1ccc2cc(CO/N=C(\CCC(=O)O)c3ccccc3)ccc2c1 [Example 2, (E)-4-[6-(5-methyl-2-phenyl-4-oxazolylmethoxy)-2-naphthylmethoxyimino]-4-phenylbutyric acid] |  |  |  |  | 1.6 | 30 | 22 |
